In ChEMBL document CHEMBL5252541, “Repurposing antipsychotic drugs into antifungal agents: Synergistic combinations of azoles and bromperidol derivatives in the treatment of various fungal infections” (Eur J Med Chem, 2017):
The source made the active and inactive calls. No cut-off for these calls is given here.

Tests used:
BEAS-2B [1] = assay: Cytotoxicity against human BEAS-2B cells assessed as cell survival at 8 microg/ml by XTT assay; assay type: toxicity, cell-based; details: dose 8 µg/ml
Candida albicans [2] = assay: Antifungal activity against Candida albicans ATCC 10231 measured after 48 hrs by broth microdilution analysis; assay type: functional
Candida albicans [3] = assay: Synergistic antifungal activity against Candida albicans ATCC 10231 assessed as compound MIC measured after 48 hrs in presence of fluconazole by checkboard based microplate reader analysis; assay type: functional
Candida albicans [4] = assay: Synergistic antifungal activity against Candida albicans ATCC 10231 assessed as compound MIC measured after 48 hrs in presence of posaconazole by checkboard based microplate reader analysis; assay type: functional
Candida albicans [5] = assay: Synergistic antifungal activity against Candida albicans ATCC 64124 assessed as compound MIC measured after 48 hrs in presence of itraconazole by checkboard based microplate reader analysis; assay type: functional
Candida albicans [6] = assay: Antifungal activity against Candida albicans ATCC MYA-1237 measured after 48 hrs by broth microdilution analysis; assay type: functional
Nakaseomyces glabratus [7] = assay: Antifungal activity against Candida glabrata ATCC 2001 measured after 48 hrs by broth microdilution analysis; assay type: functional
Candida albicans [8] = assay: Synergistic antifungal activity against Candida albicans ATCC 10231 assessed as compound MIC measured after 48 hrs in presence of voriconazole by checkboard based microplate reader analysis; assay type: functional
Candida albicans [9] = assay: Synergistic antifungal activity against Candida albicans ATCC 64124 assessed as compound MIC measured after 48 hrs in presence of voriconazole by checkboard based microplate reader analysis; assay type: functional
Candida albicans [10] = assay: Additive antifungal activity against Candida albicans ATCC 10231 assessed as fractional inhibitory concentration index measured for 72 hrs in presence of fluconazole; assay type: functional
Candida albicans [11] = assay: Partial synergistic antifungal activity against Candida albicans ATCC 10231 assessed as fractional inhibitory concentration index measured for 72 hrs in presence of posaconazole; assay type: functional
Candida albicans [12] = assay: Synergistic antifungal activity against Candida albicans ATCC 64124 assessed as fractional inhibitory concentration index measured for 72 hrs in presence of posaconazole; assay type: functional
Candida albicans [13] = assay: Partial synergistic antifungal activity against Candida albicans ATCC 10231 assessed as fractional inhibitory concentration index measured for 72 hrs in presence of voriconazole; assay type: functional
Candida albicans [14] = assay: Partial synergistic antifungal activity against Candida albicans ATCC 10231 assessed as fractional inhibitory concentration index measured for 72 hrs in presence of ketoconazole; assay type: functional
Candida albicans [15] = assay: Synergistic antifungal activity against Candida albicans ATCC 64124 assessed as fractional inhibitory concentration index measured for 72 hrs in presence of voriconazole; assay type: functional
Candida albicans [16] = assay: Antifungal activity against Candida albicans ATCC 90819 measured after 48 hrs by broth microdilution analysis; assay type: functional
Aspergillus terreus = assay: Antifungal activity against Aspergillus terreus ATCC MYA-3633 measured after 48 hrs by broth microdilution analysis; assay type: functional
Candida albicans [17] = assay: Additive antifungal activity against Candida albicans ATCC MYA-1237 assessed as fractional inhibitory concentration index measured for 72 hrs in presence of posaconazole; assay type: functional
Candida albicans [18] = assay: Additive antifungal activity against Candida albicans ATCC MYA-1237 assessed as fractional inhibitory concentration index measured for 72 hrs in presence of voriconazole; assay type: functional
Candida albicans [19] = assay: Additive antifungal activity against Candida albicans ATCC MYA-2876 assessed as fractional inhibitory concentration index measured for 72 hrs in presence of posaconazole; assay type: functional
Candida albicans [20] = assay: Additive antifungal activity against Candida albicans ATCC MYA-2876 assessed as fractional inhibitory concentration index measured for 72 hrs in presence of voriconazole; assay type: functional
Nakaseomyces glabratus [21] = assay: Additive antifungal activity against Candida glabrata ATCC 2001 assessed as fractional inhibitory concentration index measured for 72 hrs in presence of posaconazole; assay type: functional
Nakaseomyces glabratus [22] = assay: Additive antifungal activity against Candida glabrata ATCC 2001 assessed as fractional inhibitory concentration index measured for 72 hrs in presence of voriconazole; assay type: functional
Candida albicans [23] = assay: Partial synergistic antifungal activity against Candida albicans ATCC MYA-1003 assessed as fractional inhibitory concentration index measured for 72 hrs in presence of voriconazole; assay type: functional
Candida albicans [24] = assay: Partial synergistic antifungal activity against Candida albicans ATCC MYA-2310 assessed as fractional inhibitory concentration index measured for 72 hrs in presence of posaconazole; assay type: functional
Candida albicans [25] = assay: Partial synergistic antifungal activity against Candida albicans ATCC MYA-2310 assessed as fractional inhibitory concentration index measured for 72 hrs in presence of voriconazole; assay type: functional
Candida albicans [26] = assay: Synergistic antifungal activity against Candida albicans ATCC 90819 assessed as fractional inhibitory concentration index measured for 72 hrs in presence of posaconazole; assay type: functional
Candida albicans [27] = assay: Synergistic antifungal activity against Candida albicans ATCC 90819 assessed as fractional inhibitory concentration index measured for 72 hrs in presence of voriconazole; assay type: functional
Nakaseomyces glabratus [28] = assay: Synergistic antifungal activity against Candida glabrata ATCC 2001 assessed as fractional inhibitory concentration index measured for 72 hrs in presence of posaconazole; assay type: functional
Candida albicans [29] = assay: Fungicidal activity against Candida albicans ATCC 64124 assessed as reduction in colony forming units at 2 to 8 times MIC incubated after 6 hrs in presence of posaconazole by time kill assay; assay type: functional, organism-based
Candida albicans [30] = assay: Fungicidal activity against Candida albicans ATCC 64124 assessed as reduction in colony forming units at 2 to 8 times MIC incubated after 6 hrs by time kill assay; assay type: functional, organism-based
Candida albicans [31] = assay: Fungicidal activity against Candida albicans ATCC 64124 assessed as reduction in colony forming units at 8 times MIC incubated for 24 hrs by time kill assay; assay type: functional, organism-based
[32] = Cytotoxicity against HEK293 cells assessed as cell survival by XTT assay; assay type: toxicity, cell-based; details: human, read-out: Activity
[33] = Cytotoxicity against mouse J774.A1 cells assessed as cell survival by XTT assay; assay type: toxicity, cell-based; details: read-out: Activity
HEK293 [34] = assay: Cytotoxicity against HEK293 cells assessed as cell survival up to 4 microg/ml by XTT assay; assay type: toxicity, cell-based; details: human, dose < 4 µg/ml
BEAS-2B [35] = assay: Cytotoxicity against human BEAS-2B cells assessed as cell survival at 64 microg/ml by XTT assay; assay type: toxicity, cell-based; details: dose 64 µg/ml
[36] = Cytotoxicity against mouse J774.A1 cells assessed as cell survival at 32 microg/ml by XTT assay; assay type: toxicity, cell-based; details: at 32 µg/mL, read-out: Activity
HEK293 [37] = assay: Cytotoxicity against HEK293 cells assessed as cell survival at 8 microg/ml by XTT assay; assay type: toxicity, cell-based; details: human, dose 8 µg/ml
[38] = Cytotoxicity against human BEAS-2B cells assessed as cell survival at 8 microg/ml in presence of posaconazole by XTT assay; assay type: toxicity, cell-based; details: at 8 µg/mL, read-out: Activity
[39] = Cytotoxicity against human HEK293 cells assessed as cell survival at 1 to 16 microg/ml in presence of posaconazole by XTT assay; assay type: toxicity, cell-based; details: at 1 to 16 µg/mL, dose 1-16 µg/ml
HEK293 [40] = assay: Cytotoxicity against human HEK293 cells assessed as cell survival at 32 microg/ml in presence of voriconazole by XTT assay
Candida albicans [41] = assay: Additive antifungal activity against Candida albicans MYA-1003 assessed as fractional inhibitory concentration index measured for 72 hrs in presence of voriconazole

In the case of `O=C(CCCN1CCC(O)(c2ccc(Br)cc2)CC1)c1ccc(F)cc1` [BROMPERIDOL], the Activity (BEAS-2B [1]) is reported as “Non-Toxic”, the MIC (Candida albicans [2]) is reported as over 128 mg/L and the MIC (Candida albicans [3]) is reported as 64 mg/L. It also gave an MIC (Candida albicans [4]) of 64 mg/L, an MIC (Candida albicans [5]) of 64 mg/L and an MIC (Candida albicans [6]) of over 128 mg/L. For the same compound, the MIC (Nakaseomyces glabratus [7]) was over 128 mg/L, the MIC (Candida albicans [8]) was 32 mg/L and the MIC (Candida albicans [9]) was 8 mg/L. The “fractional inhibitory concentration index (FICI)” value (Candida albicans [10]) was 1.5, the “fractional inhibitory concentration index (FICI)” value (Candida albicans [11]) was 0.75 and the “fractional inhibitory concentration index (FICI)” value (Candida albicans [12]) was 0.16. For the same compound, the “fractional inhibitory concentration index (FICI)” value (Candida albicans [13]) was 0.75, the “fractional inhibitory concentration index (FICI)” value (Candida albicans [14]) was 0.75 and the “fractional inhibitory concentration index (FICI)” value (Candida albicans [15]) was 0.19. It also gave an MIC (Candida albicans [16]) of over 128 mg/L, an MIC (Aspergillus terreus) of over 128 mg/L and a fractional inhibitory concentration index (FICI) (Candida albicans [17]) of 2. For the same compound, the “fractional inhibitory concentration index (FICI)” value (Candida albicans [18]) was 2, the “fractional inhibitory concentration index (FICI)” value (Candida albicans [19]) was 2 and the “fractional inhibitory concentration index (FICI)” value (Candida albicans [20]) was 2. For the same compound, the “fractional inhibitory concentration index (FICI)” value (Nakaseomyces glabratus [21]) was 0.51, the “fractional inhibitory concentration index (FICI)” value (Nakaseomyces glabratus [22]) was 0.51 and the “fractional inhibitory concentration index (FICI)” value (Candida albicans [23]) was 0.52. The “fractional inhibitory concentration index (FICI)” value (Candida albicans [24]) was 0.52, the “fractional inhibitory concentration index (FICI)” value (Candida albicans [25]) was 0.53 and the “fractional inhibitory concentration index (FICI)” value (Candida albicans [26]) was 0.5. The “fractional inhibitory concentration index (FICI)” value (Candida albicans [27]) was 0.5, the “fractional inhibitory concentration index (FICI)” value (Nakaseomyces glabratus [28]) was 0.5 and the Activity (Candida albicans [29]) was “Active”. For the same compound, the Activity (Candida albicans [30]) was “Active”, the Activity (Candida albicans [31]) was “Active” and the viability [32] was over 100%. The viability [33] was over 100%, the Activity (HEK293 [34]) was “Non-Toxic” and the Activity (BEAS-2B [35]) was “Non-Toxic”. The viability at 32 microg/ml [36] was 50%, the Activity (HEK293 [37]) was “Non-Toxic” and the viability at 8 microg/ml [38] was 71%. For the same compound, the viability [39] was 80%, the Activity (HEK293 [40]) was “Non-Toxic” and the “fractional inhibitory concentration index (FICI)” value (Candida albicans [41]) was 0.52.
